Patent US8129340B2, “Inhibitors of protein phosphatase 1, GADD34 and protein phosphatase 1/GADD34 complex, preparation and uses thereof” (Institut Gustave Roussy, priority 2006, dated 2012)

Experiments:
ERP57 = assay: Biotinylation of cell surface proteins, 2D gel electrophoresis and mass spectrometry (ERP57 spot); type: cell-based, murine; settings: CT26 cells, short-term (4 h) treatment
CT26 cells = assay: Phagocytosis of CT26 tumour cells by dendritic cells (FACS, double positive cells); type: cell-based, BALB/c mice; settings: within a few hours after treatment
Method: FIG. 3A, FIG. 3B: Correlation between tumour cell phagocytosis and CRT exposure. Tumour cells labelled with Cell Tracker Green were cultured with CD11c-expressing DC and the percentage of DC taking up tumour cells was determined (A) and correlated with the CRT surface exposure (B), measured as in FIG. 2E.
Mitoxantrone-treated or control cells were incubated with a blocking chicken anti-CRT antibody, followed by detection of phagocytosis by CD.
Cells were transfected with the indicated siRNAs and optionally treated with rCRT, followed by immunoblot (FIG. 3D) detection of surface CRT (FIG. 3E) and phagocytosis by DC (FIG. 3F). Results are triplicates (X±SD) and representative of three independent experiments. * denotes statistically significant differences using the Student t′ test at p<0.001.
BM cells were flushed from the tibias and femurs of BALB/c mice with culture medium composed of RPMI 1640 medium (Invitrogen Life Technologies) supplemented with 10% heat-inactivated FBS (Invitrogen), sodium pyruvate, 50 μM 2-ME (Sigma), 10 mM HEPES (pH 7.4), and penicillin/streptomycin (Invitrogen). After one centrifugation, BM cells were resuspended in Tris-ammonium chloride for 2 min to lyse RBC. After one more centrifugation, BM cells (1×10^6 cells/ml) were cultured in medium supplemented with 100 ng/ml recombinant mouse FLT3 ligand (R&D systems) in 6-well plates (Costar Corning). After 7 days, the non-adherent and loosely adherent cells were harvested with Versene, washed and transferred in 12-well plates (1.5×10^6 cells/plate) for cocultures with tumour cells.
In 12-well plates, […] adherent CT26 cells were labelled with Celltracker Green (Calbiochem) and then incubated with drugs. In some experiments viable CT26 were coated with 2 μg/10^6 cells of chicken anti-CRT antibody (ABR affinity bioreagents) or an isotype control for 30 min prior to washing and feeding to dendritic cells Cs. Alternatively CT26 cells were coated with 2 μg/10^6 cells of rCRT on ice for 30 min and washed twice prior to addition to dendritic cells. Cells were then harvested, washed three times with medium supplemented with FBS and cocultured with immature DC for 2 hours at a ratio of 1:1 and 1:5. At the end of the incubation, cells were harvested with versene, pooled with non-adherent cells present in the supernatant, washed and stained with CD11c-FITC antibody. Phagocytosis was assessed by FACS analysis of double positive cells. Phagocytic indexes refer to the ratio between values obtained at 4° C. and values obtained at 37° C. of co-incubation between DC and tumour cells.

CT26 tumour cells = assay: Anti-tumour vaccination: dying treated CT26 cells injected in one flank, later challenge with live tumour cells; type: in vivo, BALB/c mice; settings: dying CT26 cells treated with agent injected into one flank, live tumour cells in opposite flank 8 days later
CRT = assay: Biotinylation of cell surface proteins, 2D gel electrophoresis and mass spectrometry; type: cell-based, murine; settings: CT26 cells, short-term (4 h) treatment, versus untreated
CT26 colon cancer = assay: Intratumoural peptides with systemic mitomycin C against established CT26 colon cancer (tumor size, survival); type: in vivo, BALB/c mice; settings: 10 micrograms peptide in situ plus systemic mitomycin C
Method: CT26 cells were injected se in BALB/c mice. At a size of 20 mm^2, the palpable tumors were directly inoculated in situ with 10 micrograms of either of the three following peptides (see below) alone or together with a systemic treatment with mitomycin C (as described in Obeid et al. Nat Med 2007) or PBS. • 1. Cell-penetrable PP1 inhibitory peptide VKKKKIKREIKI-LKARKVRFSEKV (SEQ ID NO: 4) • 2. Cell-penetrable control peptide VKKKKIKREIKI-LKARAVRFSEKV (SEQ ID NO: 18) • 3. Cell penetration sequence VKKKKIKREIKI (SEQ ID NO: 3) alone admixed together with PP1-inhibitory peptide LKARKVRFSEKV (SEQ ID NO: 2) alone.
5 animals/group were included in this experiment.

calreticulin [1] = assay: Calreticulin exposure by immunofluorescence staining and flow cytometry, CT26 cells (peptide test); type: cell-based, murine; settings: 2 hours
Method: (§1) HCT116 cells (FIG. 7A) or CT26 cells (FIG. 7B) were cultured in complete mediums supplemented with 10% fetal calf serum alone or in the presence of the control peptide (VKKKKIKREIKI-lkaravafsekv) (SEQ ID NO: 17) or the PP1/GADD34 inhibitory peptide (VKKKKIKREIKI-lkarkvrfsekv, SEQ ID NO: 4. denominated PP1 peptide) for 2 hours. Cells were washed twice with PBS and fixed in PFA (4% w/v) for 5 min. Cells were stained with an antibody against calreticulin (pAb from Abeam, ab2907) at 1:200 dilution or isotype control, in staining buffer (PBS, 1% FCS) for 30 min on ice, followed by washing. An anti-rabbit Alexa fluor 488 immunoglobulin conjugate (Molecular Probes-Invitrogen) diluted at 1:500 was added for an additional 30 min on ice before washing and analysed by flow cytometry (FACScan, Becton Dickinson). Propidium Iodide (50 μg/ml, Becton Dickinson) was added to the samples to label and exclude permeabilized (dead) cells.

calreticulin [2] = assay: Calreticulin exposure by immunofluorescence staining and flow cytometry, HCT116 cells; type: cell-based, human; settings: 2 hours
Method: as §1

Row | Compound | surface exposure of ERP57 (ERP57) | phagocytosis of drug-treated tumour cells by DC (CT26 cells) | immunogenicity of cell death (protection against tumour growth, anti-tumour vaccination) (CT26 tumour cells) | induction of surface CRT (factor) (CRT) | therapeutic effect of combination with mitomycin C (CT26 colon cancer) | exposure of calreticulin, CT26 cells (calreticulin [1]) | exposure of calreticulin, HCT116 cells (calreticulin [2])
1 | COc1cccc2c1C(=O)c1c(O)c3c(c(O)c1C2=O)C[C@@](O)(C(=O)CO)C[C@@H]3O[C@H]1C[C@H](N)[C@H](O)[C@H](C)O1 [doxorubicin] | specifically induced | acquired the property to be phagocytosed by DC quickly | elicited immunogenic cell death | 6 |  |  | 
2 | VKKKKIKREIKI-LKARKVRFSEKV (VKKKKIKREIKILKARKVRFSEKV; Artificial sequence including a fragment of GADD34 and a translocation motif.) [SEQ ID NO:4, fragment of GADD34 fused to a plasma membrane translocation motif] |  |  |  |  | synergistic therapeutic effects | capable of inducing the exposure of calreticulin | capable of inducing the exposure of calreticulin
